pEC50, pIC50: −log10 of the molar value.
Assays:
[1] = biological target: T1, human USP7 full length protein (Homo sapiens, UniProt Q93009); assay: USP7 inhibition assay (Ubiquitin-Rhodamine110Gly cleavage); format: biochemical; conditions: Ub-RhoG cleavage, read-out: IC50 (half-maximal inhibition)
T1 construct: human USP7 full length protein
Method: USP7 inhibitors in DMSO were diluted in UbR buffer (40 mM Tris-HCl pH 8, 150 mM NaCl, 1 mM TCEP, 0.1 mg/mL BSA, 0.01% Tween20) to a concentration of 80 μM (4x). This stock was then further diluted in an 11-times serial dilution in UbR buffer containing 4% DMSO (4x). To this was added the same volume of human USP7 full length protein[59] […] The assay was initiated upon addition of 10 μL per well of Ubiquitin-Rhodamine110Gly (Ub-RhoG) (100 nM in UbR buffer, 2x). […] Normalization was carried out using samples featuring either no inhibitor or no enzyme as respective controls. […] Slopes of fluorescence over time curves were determined with Microsoft Excel through linear regression using the first 15 min of each measurement.

[2] = biological target: T2, USP7 (Homo sapiens, UniProt Q93009); assay: PROTAC rescue experiments, Western blot, Panc89 and Ma-Mel-47 cells; format: cell-based; conditions: 2 h pretreatment (MLN4924 500 nM, CFZ 250 nM, NK249 10 µM), then 1 µM NK250 or NK266 for 20 h
T2 construct: allowed the analysis of endogenous USP7 degradation in both cell lines; endogenous in cells; host or cells: Panc89 (PDAC) and Ma-Mel-47 (melanoma) cells
T2 sequence (Q93009 whole entry): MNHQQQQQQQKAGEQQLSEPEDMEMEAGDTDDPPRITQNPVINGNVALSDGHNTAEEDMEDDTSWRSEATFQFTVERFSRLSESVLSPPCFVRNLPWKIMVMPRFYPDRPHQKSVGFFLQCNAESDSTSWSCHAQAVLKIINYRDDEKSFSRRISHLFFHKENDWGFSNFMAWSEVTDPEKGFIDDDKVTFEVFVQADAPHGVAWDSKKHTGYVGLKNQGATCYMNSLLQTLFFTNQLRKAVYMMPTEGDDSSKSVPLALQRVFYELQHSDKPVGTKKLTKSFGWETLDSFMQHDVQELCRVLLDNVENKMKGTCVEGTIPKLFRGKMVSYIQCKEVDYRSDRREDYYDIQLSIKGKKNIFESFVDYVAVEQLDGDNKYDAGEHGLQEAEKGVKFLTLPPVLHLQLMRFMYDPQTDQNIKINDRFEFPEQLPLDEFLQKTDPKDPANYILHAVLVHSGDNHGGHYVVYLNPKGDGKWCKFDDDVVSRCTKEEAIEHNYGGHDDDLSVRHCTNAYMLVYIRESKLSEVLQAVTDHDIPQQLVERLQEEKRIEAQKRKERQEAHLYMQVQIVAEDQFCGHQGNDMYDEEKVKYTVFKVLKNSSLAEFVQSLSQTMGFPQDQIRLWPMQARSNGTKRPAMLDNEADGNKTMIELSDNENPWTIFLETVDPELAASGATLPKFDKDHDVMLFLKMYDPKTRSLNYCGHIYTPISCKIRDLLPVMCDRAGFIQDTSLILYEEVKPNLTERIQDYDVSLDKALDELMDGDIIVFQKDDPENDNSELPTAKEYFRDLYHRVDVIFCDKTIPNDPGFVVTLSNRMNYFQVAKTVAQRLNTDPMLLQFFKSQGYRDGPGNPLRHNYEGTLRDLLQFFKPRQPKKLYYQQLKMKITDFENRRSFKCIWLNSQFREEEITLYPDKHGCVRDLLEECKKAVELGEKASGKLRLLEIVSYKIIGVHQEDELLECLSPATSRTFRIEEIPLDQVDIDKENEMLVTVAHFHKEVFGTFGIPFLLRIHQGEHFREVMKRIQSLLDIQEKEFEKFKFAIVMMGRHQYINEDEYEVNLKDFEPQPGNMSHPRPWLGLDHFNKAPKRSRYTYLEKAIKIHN
Method: Cells were treated with proteasome inhibitor Carfilzomib (CFZ, 250 nM), NEDDylation Inhibitor MLN4924 (500 nM) or VHL inhibitor NK249 (10 µM). After 2 h, PROTAC (1 µM) was added. Cells were analyzed after 20 h.

[3] = biological target: T2, USP7; assay: USP7 degradation, Western blot densitometry, Ma-Mel-47 cells; format: cell-based; conditions: Ma-Mel-47, 5 µM, 24 h, Western blot
Method: (§1) The melanoma cell line Ma-Mel-47 (established previously[57] from metastatic lesions from patient tumor tissues after written informed consent) and the PDAC cell line Panc89 (RRID: CVCL_4056, also referenced as T3M-4[58]) were cultured in a humidified incubator with 5% CO2 at 37 °C in RPMI1640 (Ma-Mel-47) / DMEM (Panc89) medium containing 10% (v/v) fetal calf serum (FCS) and penicillin/streptomycin (all Gibco, Thermo Fisher Scientific). Studies on human material were approved by the institutional review board. […] Testing for mycoplasma was performed by PCR monthly. To confirm cell identity, STR analysis was performed by the Microsynth Seqlab GmbH.
(§2) To prepare samples for Western blot analysis, cells were seeded in 6-well dishes the day before treatment to adhere at 70–80% confluency.
(§3) Cell pellets of all PDAC samples were lysed via adding a buffer containing 150 mM NaCl, 50 mM Tris/HCl (pH 7.4), 1% Triton X-100, 10 mM EDTA, 1 mM PMSF, 10 mM orthovanadate, and 1% aprotinin, incubating on ice for 1 h with vortexing every 15 minutes. Lysates were cleared of cell debris by centrifugation at 10,000 ×g at 4 °C for 10 min. […] Lysates were then clarified of cell debris by centrifugation at 13,000 ×g at 4 °C for 15 min. Thereafter, the total protein concentrations were either determined immediately or the protein extracts were stored at −20 or −80 °C. Pellets for samples shown in Fig. 6 and Supplementary Fig. 6 were lysed in 120 µL lysis buffer (50 mM Tris pH 8.0, 150 mM NaCl, 1% (v/v) IGEPAL, 0.5% (w/v) Na-deoxycholate, 0.1% (w/v) SDS) supplemented with 1x EDTA-free inhibitor protease cocktail (cOmplete, Roche) for 15 min at 4 °C. 0.2 µL Turbonuclease (Sigma Aldrich) and 5 mM MgCl2 were then added and lysates were incubated for 15 min at 4 °C. Cell debris was separated by centrifugation at 20,817 ×g for 15 min at 4 °C.
(§4) Protein concentrations of cell lysates were measured using the Pierce BCA Protein Assay (Thermo Fisher Scientific) or the Quick Start Bradford Protein Assay (Bio-Rad), following the manufacturers’ protocols. Measurements were recorded on Tecan Spark or Tecan Infinite M200 plate readers. Lysates were kept on ice throughout the entire process.
(§5) To separate proteins via SDS-PAGE, 10-20 µg of protein in lysis buffer was diluted with SDS-PAGE loading buffer (for most blots containing DTT or 2-mercaptoethanol) and denatured at 95 °C for 5 min. Protein separation was conducted at 95–110 V using the Mini-PROTEAN electrophoresis system (Bio-Rad). Proteins were then transferred to PVDF or nitrocellulose membranes using the Trans-Blot Turbo system (Bio-Rad) with the Trans-Blot Turbo RTA Kit for PVDF membranes. Prior to transfer, membranes were activated by soaking in 100% ethanol (for PVDF) or distilled water (for nitrocellulose) and proteins were transferred using the Mixed MW or the standard (1.0 A, 25 V, 30 min) protocol.
(§6) After transfer, membranes were blocked in 5% (w/v) milk/TBS-T for 1 h and then washed three times for 10 min with TBS-T. They were incubated overnight at 4 °C with the primary antibody in 5% (w/v) milk/TBS-T or 1% (w/v) BSA/TBS-T. Membranes were then washed three times for 10 min with TBS-T and incubated with horseradish peroxidase (HRP)-conjugated secondary antibodies in a solution of 5% (w/v) BSA/TBS-T or 1% (w/v) milk/TBS-T for 1 h at room temperature. PBS-T was used for blots shown in Fig. 6 and Supplementary Fig. 6.
(§7) Membranes were incubated with Clarity Western ECL substrate (Bio-Rad) for PDAC samples or Pierce ECL Western Blotting-Substrate (Thermo Fisher Scientific) for melanoma. Chemiluminescent signals were detected with a ChemiDoc Imaging System (Bio-Rad) for PDAC samples or with a ECL Chemostar Imager (Intas Science Imaging) for melanoma samples.
(§8) Densitometric quantification of band intensities for Fig. 2c, d was performed using the ImageJ software.

[4] = biological target: T3, NanoLuc-USP7 and HaloTag-VHL (Homo sapiens, UniProt P40337+Q93009); assay: Cellular ternary complex formation assay (NanoBRET), HEK293T cells; format: cell-based; conditions: for Ternary complex induction (in words): NanoBRET
T3 construct: expressed in transfected cells; host or cells: HEK293T, transient transfection (FuGENE HD)
T3 sequence (Q93009 whole entry): as above
T3 sequence (P40337 whole entry): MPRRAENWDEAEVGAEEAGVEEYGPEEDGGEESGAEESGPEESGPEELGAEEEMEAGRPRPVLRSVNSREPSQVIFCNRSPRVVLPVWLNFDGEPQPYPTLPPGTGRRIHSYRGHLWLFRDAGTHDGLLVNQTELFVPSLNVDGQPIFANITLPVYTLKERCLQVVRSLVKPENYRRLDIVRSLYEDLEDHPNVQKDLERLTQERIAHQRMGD
T3 sequence (Q15370 whole entry partner): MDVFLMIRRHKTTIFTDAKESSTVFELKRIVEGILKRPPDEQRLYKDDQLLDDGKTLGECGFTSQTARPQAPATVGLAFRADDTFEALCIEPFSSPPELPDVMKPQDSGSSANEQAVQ
T3 sequence (Q15369 whole entry partner): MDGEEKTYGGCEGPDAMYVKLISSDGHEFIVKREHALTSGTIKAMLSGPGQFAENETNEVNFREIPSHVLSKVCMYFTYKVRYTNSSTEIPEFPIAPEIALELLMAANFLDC
Method: The assay was performed as described step-by-step elsewhere. USP7 (NanoLuc-USP7) and VHL (HaloTag-VHL) were cloned in frame with N-terminal NanoLuc or HaloTag, respectively. For transfections, HEK293T cells were diluted in Opti-MEM medium without phenol red (Life Technologies) to 4×10^5 cells/mL and 9 µL were pipetted into each well of a white 384-well plate (Greiner 781207). 1 mL transfection mix was prepared containing 30 µL FuGENE HD (Promega, E2312) and 8 µL of each plasmid, incubated 20 min at RT and 1 µL were pipetted into each well leading to the total assay volume of 10 µL. […] 2 h prior to BRET measurements, the compounds were titrated to the cells using an Echo acoustic dispenser and the cells were incubated further at 37 °C and 5% CO2 to allow complex formation. NanoBRET Nano-Glo substrate and Extracellular NanoLuc Inhibitor (Promega, N2540) were then added as per the manufacturer’s protocol, and filtered luminescence was recorded on a PHERAstar FSX plate reader (BMG Labtech) equipped with a luminescence filter pair (donor: 450 nm BP filter; acceptor: 610 nm LP filter). Data were analyzed using GraphPad Prism 10 software.

[5] = biological target: HiBiT-USP7 (Homo sapiens, UniProt Q93009); assay: HiBiT USP7 degradation assay, MV4-11 cells; format: cell-based; conditions: MV4-11 HiBiT-USP7, 6 h and 24 h
Sequence of HiBiT-USP7 (Q93009 whole entry, the tested form may be a part): as the sequence (Q93009 whole entry) above
Method: HiBiT-USP7 construct was cloned by extraction of USP7 fragment from plasmid pQHA-USP7 WT puroR (Addgene #46753) using appropriate restriction sites. The USP7 fragment was then ligated into the pRRL-PGK-HiBiT entry vector to generate the plasmid.
Lentiviral infection was used to generate stable a MV4-11 HiBiT cell line. Lentivirus was produced using plasmids psPAX2, pMD2.G, and HiBiT-USP7 plasmid in HEK293 cells. MV4-11 cells were infected with filtered virus supernatant and selected after 48 h of infection for the generation of the stable MV4-11^HiBiT-USP7 cell line.
The assay was performed as described previously. Briefly, MV4-11^HiBiT-USP7 cells were seeded and treated with compounds for the indicated time. Nano-Glo HiBiT Lytic Detection System (Promega) was used for the assay and luminescence was measured on a Tecan Spark microplate reader (Tecan). DC50 values were calculated using the sigmoidal dose-response (four parameters) equation in GraphPad Prism and are given as the concentration where 50% of the total signal was remaining. Dmax values are given as the maximum degradation observed at any concentration.

[6] = biological target: T2, USP7; assay: USP7 degradation, Western blot densitometry, Panc89 cells; format: cell-based; conditions: Panc89, 5 µM, 24 h, Western blot
Method: as §1, §2, §3, §4, §5, §6, §7, §8

[7] = test system: Ma-Mel-47 USP7 K.O. cells; assay: Medium color switch (images), Ma-Mel-47 USP7 K.O. cells; format: cell-based, human; conditions: Ma-Mel-47 USP7-KO, 72 h, 5 µM NK192, 10 µM FT671, 1 µM NK266
[8] = test system: Panc89 cells; assay: Confluence measurement (cell growth), Panc89; format: cell-based, human; conditions: Panc89, 1-10 µM, 72 h, 25 mM or 5 mM D-glucose

T1 sequence (Q93009 whole entry): as above

CC(=O)c1cc([N+](=O)[O-])c(Sc2cccc(Cl)c2Cl)s1 [P5091]
pIC50 [1]: 5.68

CC(C)C[C@H](NC(=O)[C@H](CCc1ccccc1)NC(=O)CN1CCOCC1)C(=O)N[C@@H](Cc1ccccc1)C(=O)N[C@@H](CC(C)C)C(=O)[C@@]1(C)CO1 [carfilzomib, Carfilzomib]
Rescue of PROTAC-mediated USP7 degradation (in words) [2]: rescued PROTAC-mediated degradation of USP7

CC(CC(=O)N1CCC(O)(Cn2cnc3c(cnn3-c3ccc(N4CCN(C(=O)CCOCCOCCOCCNC(=O)CCCCC5SCC6NC(=O)NC65)CC4)cc3)c2=O)CC1)c1ccccc1 (stereo not shown) [NK264]
pIC50 [1]: 7.82

Cc1ncsc1-c1ccc([C@H](C)NC(=O)[C@@H]2C[C@@H](O)CN2C(=O)[C@@H](NC(=O)C2(F)CC2)C(C)(C)C)cc1 [NK249]
Rescue of PROTAC-mediated USP7 degradation (in words) [2]: rescued PROTAC-mediated degradation of USP7

Cc1ncsc1-c1ccc(CNC(=O)[C@@H]2C[C@@H](O)CN2C(=O)[C@@H](NC(=O)C23C4C5C2C2C3C4C52C(=O)N2CCC(C3CCN(c4ccc(-n5ncc6c(=O)n(CC7(O)CCN(C(=O)C[C@@H](C)c8ccccc8)CC7)cnc65)cc4)CC3)CC2)C(C)(C)C)cc1 (stereo partly shown) [NK233]
USP7 degradation (in words) [3]: robust degradation of USP7 | Ternary complex induction (in words) [4]: did not increase the BRET signal to the same level | HiBiT-USP7 levels (in words) [5]: lower potency | USP7 degradation (in words) [6]: effectively degraded USP7

Cc1ncsc1-c1ccc(CNC(=O)[C@@H]2C[C@@H](O)CN2C(=O)[C@@H](NC(=O)C2(C#N)CC2)C(C)(C)C)cc1 [VH298, reference compound]
Ternary complex induction (in words) [4]: neither the negative control NK245 nor the VHL ligand VH298 induced a ternary complex

Cc1ncsc1-c1ccc(CNC(=O)C2CC(O)CN2C(=O)C(NC(=O)C2CCC(C(=O)N3CCN(c4ccc(-n5ncc6c(=O)n(CC7(O)CCN(C(=O)CC(C)c8ccccc8)CC7)cnc65)cc4)CC3)CC2)C(C)(C)C)cc1 (stereo not shown) [NK225]
USP7 degradation (in words) [3]: robust degradation of USP7 | pEC50 ([4]; compound 2 h prior BRET measurement, read-out: EC50 (half-maximal ternary complex formation concentration)): 6.84 | HiBiT-USP7 levels (in words) [5]: lower potency | USP7 degradation (in words) [6]: effectively degraded USP7

CCc1c(-c2ccc3[nH]ncc3c2)cnc(N)c1-c1ccc(O)cc1 [GNE-6640]
pIC50 [1]: 6.26

NS(=O)(=O)OC[C@@H]1C[C@@H](n2ccc3c(N[C@H]4CCc5ccccc54)ncnc32)C[C@@H]1O [MLN4924, Pevonedistat]
Rescue of PROTAC-mediated USP7 degradation (in words) [2]: rescued PROTAC-mediated degradation of USP7

O=C(C[C@@H](C(F)F)n1ccc(F)n1)N1CCC(O)(Cn2cnc3c(cnn3-c3ccc(F)cc3)c2=O)CC1 [FT671, reference compound]
pIC50 [1]: 7.89 | Change of media color (in words) [7]: the same change of media color | Cell growth (in words) [8]: not affected

CN1CCN(CCC(=O)Nc2ccc3c(=O)n(CC4(O)CCN(C(=O)[C@@H](CCCNC(=O)c5ccc6c(Cl)c7c(nc6c5)CCCC7)Cc5ccccc5)CC4)cnc3c2)CC1 [XL177A]
pIC50 [1]: 7.04
